How the values were obtained:
[1] = system: vascular smooth muscle cells; assay: Investigation of calcification of vascular smooth muscle cells (silver nitrate staining, optical microscope); assay type: cell-based, cattle; settings: inorganic phosphate (Pi)-induced, 100 and 200 μM, cultured 10 days, FIG. 1
Protocol: The surrounding tissues were removed from the thoracoabdominal aorta isolated from male cattle, and endothelial cells that line blood vessels were removed. The cleaned blood vessels were divided into small fragments, which were then aligned on a culture dish containing Dulbecco's modified Eagle's medium (DMEM, Low Glucose, Thermo Fisher Scientific, USA) supplemented with 20% fetal bovine serum (FBS, Hyclone, Australia). Thereafter, culturing was performed in a cell incubator at 37° C. and 5% CO2 for 3-4 weeks. The vascular smooth muscle cells stretching out around the vascular tissues were subjected to primary culture with media changed every two days.
The vascular smooth muscle cells cultured in Preparation Example 1 above were stabilized by subculture in DMEM (high glucose) supplemented with penicillin/streptomycin antibiotics and 10% FBS. […]
After the induction of calcification by the method in Preparation Example 2 above, the media were removed from the culture dishes, followed by washing with phosphate buffer saline (PBS) three times. […] Thereafter, the cells were washed with primary distilled water two or three times, and then were determined for a degree of calcification through an optical microscope (BX53 microscope, Olympus, Japan).

[2] = system: vascular smooth muscle cells; assay: Quantification of calcium in vascular smooth muscle cells; assay type: cell-based, cattle; settings: inorganic phosphate-induced, 100 and 200 μM, corrected by protein amount, p<0.01 vs Vehicle, FIG. 2
Protocol: The surrounding tissues were removed from the thoracoabdominal aorta isolated from male cattle, and endothelial cells that line blood vessels were removed. The cleaned blood vessels were divided into small fragments, which were then aligned on a culture dish containing Dulbecco's modified Eagle's medium (DMEM, Low Glucose, Thermo Fisher Scientific, USA) supplemented with 20% fetal bovine serum (FBS, Hyclone, Australia). Thereafter, culturing was performed in a cell incubator at 37° C. and 5% CO2 for 3-4 weeks. The vascular smooth muscle cells stretching out around the vascular tissues were subjected to primary culture with media changed every two days. […]
After the induction of calcification by the method in Preparation Example 2 above, the media were removed from the culture dishes, followed by washing with PBS. Then, the cells were decalcified by treatment with 0.6 N HCl at 4° C. for 24 hours, The supernatant was recovered for the use in the quantification of calcium, and proteins were extracted from the cells by using 0.1 N NaOH/0.1% SDS, and quantified by using the BCA method. […]
(ODSAMPLE and ODBLANK represent the OD612nm values of calcium sample and blank (water), respectively; and the slope represents the inclination value on the measured absorbance graph)

[3] = system: C57BL/6J mice; assay: In vivo vitamin D3-induced vascular calcification, Von Kossa staining of aorta; settings: FIG. 3
Excerpt: (§1) C57BL/6J mice aged 8-9 weeks were grouped into 5 groups of 7 mice each, and four groups (one group being used as a control) underwent the induction of vascular calcification by subcutaneous administration of a high dose (9.0×10^5 IU) of vitamin D3 (Vit. D3) once a day for a total of 3 days.
First, on the 10th day after the administration of vitamin D3, the mice were sacrificed and the abdomen was opened, and then the aorta was separated by cleanly removing surrounding tissues of the aorta, and fixed with 4% paraformaldehyde (PFA) for 24 hours. The fixed aorta was washed, immersed in a 5% silver nitrate solution, and incubated under UV light for 30 minutes.

[4] = system: C57BL/6J mice; assay: In vivo vitamin D3-induced vascular calcification, calcium quantification in aorta; settings: FIG. 4
Excerpt: as §1
Additionally, on the 10th day after the administration of vitamin D3, the mice were sacrificed and the abdomen was opened, and then the aorta was separated by cleanly removing surrounding tissues and frozen in liquid nitrogen. The frozen tissues were thawed, weighed after the removal of moisture, and then subjected to decalcification with a 0.6 N HCl solution. The colorimetric Ca quantification kit (Bioassay DICA-500) was used to quantify calcium in the 0.6 N HCl solution used in the decalcification, and the calcium quantification was corrected by using the tissue weight.

CC(=C(CCO)SSCC1CCCO1)N(C=O)Cc1cnc(C)nc1N (stereo in doubt) [fursultiamine, thiamine tetrahydrofurfuryl disulfide]
calcification (black dots) [1]: inhibited
calcium amount increased by inorganic phosphate [2]: decreased
colored parts of aorta (Von Kossa staining) ([3]; 10 mg/kg and 30 mg/kg oral once a day for 13 days): reduced (recovered) dose-dependently
degree of recovery compared with the DCA administration group (positive control) ([3]; 30 mg/kg oral): excellent
amount of calcium in the aorta ([4]; 10 mg/kg and 30 mg/kg oral once a day for 13 days, corrected by tissue weight): decreased dose-dependently
degrees of decrease of calcium compared with the DCA group (positive control) ([4]; 10 mg/kg and 30 mg/kg oral): excellent

C=CCSS/C(CCO)=C(/C)N(C=O)Cc1cnc(C)nc1N [allithiamine, thiamine allyl disulfide]
calcification (black dots) [1]: inhibited
calcium amount increased by inorganic phosphate [2]: decreased
